Patent US20240082416A1, “AMATOXIN ANALOGS AND USES THEREOF” (THE UNIVERSITY OF BRITISH COLUMBIA, priority 2020, published 2024)
“And” between values parts separate entries of the source, which are not always exact repeats. Equal entries are not always repeated. Starred links: 1 amine or outer side, 2 acyl side, 3 side chain; linkers in the order of their positions; H or OH if unused. Positions of bridges follow the written chain, without caps; N, C: chain ends. Non-standard residues stand in square brackets, D forms with d. Residues, ends and D or L forms follow the SMILES beside them. Trp(2-yl) = O=C([C@H](Cc1c([*:3])[nH]c2ccccc12)N[*:1])[*:2]; Pro(trans-4-guanidino) = N=C(N)N[C@H]1CN[C@H](C(=O)O)C1; Ile(4R-OH,5-OH) = C[C@H]([C@H](N)C(=O)O)[C@@H](O)CO; Pro(4R-NH2) = N[C@H]1CN[C@H](C(=O)O)C1

How the values were obtained:
[1] = Viability assay against CHO cells (MTT colorimetric assay); format: cell-based, Chinese hamster; conditions: Chinese hamster, CHO cells, 72 h, replicates n = 1, 2, 3, read-out: % viable cells; for viability at 72 h, 1e-05 M: 1e-005 M; for viability at 72 h, 1.25e-06 M: 1.25e-006 M; for viability at 72 h, 1.56e-07 M: 1.56e-007 M; for viability at 72 h, 2e-05 M: 2e-005 M; for viability at 72 h, 2.5e-06 M: 2.5e-006 M; for viability at 72 h, 3.125e-07 M: 3.125e-007 M; for viability at 72 h, 5e-06 M: 5e-006 M; for viability at 72 h, 6.25e-07 M: 6.25e-007 M; for viability at 72 h, 7.8e-08 M: 7.8e-008 M
[2] = test system: CHO cells; experiment: as above; format: cell-based, Chinese hamster; conditions: 72 h, replicates n = 1, 2, 3
[3] = target: T1, Pol II (Homo sapiens, UniProt P24928); experiment: In vitro transcription runoff assay using HeLaScribe nuclear extract; format: biochemical; conditions: for Transcription activity E (%): mean ± standard deviation
T1 construct: HeLaScribe® nuclear extract containing Pol II and all other transcription factors; purchased Promega; host or cells: HeLa nuclear extract (endogenous protein)

[4] = IC50 (nM), Table 11, 3 parameter logistic fit
[5] = IC50 (nM), Table 12, n = 3, high values estimated from activity at [I]=1.0 μM

Structure (SMILES): CC[C@H](C)[C@@H]1NC(=O)CNC(=O)[C@@H]2Cc3c([nH]c4ccccc34)SC[C@H](NC(=O)CNC1=O)C(=O)N[C@@H](CC(N)=O)C(=O)N1C[C@H](N)C[C@H]1C(=O)N[C@@H]([C@@H](C)[C@@H](O)CO)C(=O)N2 [Compound 6, NH2-Pro-amanitin] (cyclo(CN[Pro(4R-NH2)][Ile(4R-OH,5-OH)][Trp(2-yl)]GIG); thioether 1-5)
- viability at 72 h, 1e-05 M [1]: 91%
- viability at 72 h, 1.25e-06 M [1]: 95%
- viability at 72 h, 1.56e-07 M [1]: 95%
- viability at 72 h, 2e-05 M [1]: 92%
- viability at 72 h, 2.5e-06 M [1]: 86%
- viability at 72 h, 3.125e-07 M [1]: 86%
- viability at 72 h, 5e-06 M [1]: 87%
- viability at 72 h, 6.25e-07 M [1]: 92%
- viability at 72 h, 7.8e-08 M [1]: 96%
- % viable cells ([2]; 1e-005 M, listed as NH2-Pro-amanitin (6)): 81% and 83%
- % viable cells ([2]; 1.25e-006 M, listed as NH2-Pro-amanitin (6)): 88%
- % viable cells ([2]; 1.56e-007 M, listed as NH2-Pro-amanitin (6)): 97%
- % viable cells ([2]; 2e-005 M, listed as NH2-Pro-amanitin (6)): 89% and 85%
- % viable cells ([2]; 2.5e-006 M, listed as NH2-Pro-amanitin (6)): 85% and 82%
- % viable cells ([2]; 5e-006 M, listed as NH2-Pro-amanitin (6)): 79% and 84%
- % viable cells ([2]; 6.25e-007 M, listed as NH2-Pro-amanitin (6)): 85%
- % viable cells ([2]; 7.8e-008 M, listed as NH2-Pro-amanitin (6)): 89%
- Transcription activity E (%) ([3]; 30 nM): 91.7 ± 9.3%
- Transcription activity E (%) ([3]; 100 nM): 82.3 ± 12.8%
- Transcription activity E (%) ([3]; 300 nM): 55.0 ± 23.6%
- Transcription activity E (%) ([3]; 1000 nM): 38.6 ± 18.3%
- Transcription activity E (%) ([3]; 3000 nM): 19.8 ± 9.9%
- IC50 ([3]; IC50): 550 ± 90 nM
- IC50 [3, 4]: 550 ± 90 nM
- IC50 [3, 5]: 550 ± 90 nM

Structure (SMILES): CC[C@H](C)[C@@H]1NC(=O)CNC(=O)[C@@H]2Cc3c([nH]c4ccccc34)SC[C@H](NC(=O)CNC1=O)C(=O)N[C@@H](CC(N)=O)C(=O)N1C[C@H](NC(=N)N)C[C@H]1C(=O)N[C@@H]([C@@H](C)[C@@H](O)CO)C(=O)N2 [Compound 7, Gdn-Pro-amanitin] (cyclo(CN[Pro(trans-4-guanidino)][Ile(4R-OH,5-OH)][Trp(2-yl)]GIG); thioether 1-5)
- viability at 72 h, 1e-05 M [1]: 100%
- viability at 72 h, 1.25e-06 M [1]: 89%
- viability at 72 h, 1.56e-07 M [1]: 88%
- viability at 72 h, 2e-05 M [1]: 99%
- viability at 72 h, 2.5e-06 M [1]: 90%
- viability at 72 h, 3.125e-07 M [1]: 85%
- viability at 72 h, 5e-06 M [1]: 93%
- viability at 72 h, 6.25e-07 M [1]: 88%
- viability at 72 h, 7.8e-08 M [1]: 96%
- % viable cells ([2]; 1e-005 M, listed as Gdn-Pro-amanitin (7)): 102%
- % viable cells ([2]; 1.25e-006 M, listed as Gdn-Pro-amanitin (7)): 86%
- % viable cells ([2]; 1.56e-007 M, listed as Gdn-Pro-amanitin (7)): 91% and 80%
- % viable cells ([2]; 2e-005 M, listed as Gdn-Pro-amanitin (7)): 101%
- % viable cells ([2]; 2.5e-006 M, listed as Gdn-Pro-amanitin (7)): 82%
- % viable cells ([2]; 3.125e-007 M, listed as Gdn-Pro-amanitin (7)): 86%
- % viable cells ([2]; 6.25e-007 M, listed as Gdn-Pro-amanitin (7)): 83% and 84%
- % viable cells ([2]; 7.8e-008 M, listed as Gdn-Pro-amanitin (7)): 92%
- Transcription activity E (%) ([3]; 30 nM): 77.3 ± 9.0%
- Transcription activity E (%) ([3]; 100 nM): 76.1 ± 13.2%
- Transcription activity E (%) ([3]; 300 nM): 56.6 ± 11.6%
- Transcription activity E (%) ([3]; 1000 nM): 31.3 ± 5.8%
- Transcription activity E (%) ([3]; 3000 nM): 14.1 ± 7.1%
- IC50 ([3]; IC50): ~400 nM
- IC50 [3, 4]: 410 ± 80 nM
- IC50 [3, 5]: 410 ± 80 nM
- IC50 fold higher than that of the natural product ([3]; vs α-amanitin): approximately 50 fold
